From patent EP0454444A1, “Glutarimide derivatives and herbicides” (NISSAN CHEMICAL INDUSTRIES LTD., priority 1990, dated 1991)

Legend:
Assay in all cases: Herbicidal effect test by soil treatment
Type in all cases: in vivo
corn (Zea mays) = details: crop plant, three weeks after spraying
From the text: (§1) In a plastic box of 15 cm length, 22 cm width and 6 cm depth, there was placed a sterilized dilvial soil, and seeds of barnyardgrass (Echinochloa crusgalli), large crabgrass (Digitaria adscendens), annual sedge (Cyperus microiria), black nightshade (Solanum nigrum L.), hairly galinosoga (Galinsoga ciliat), rorippa ssp. (Rorippa atrovirens), rice (Oryza sativa), corn (Zea mays), wheat (Triticum aestivum), soybean (Glysine max) and cotton (Gossypium herbaceum) were sown mixedly. After covering soil to about 1 cm over the seeds, herbicides were sprayed evenly on the soil surface to predetermined proportions of the active ingredient In spraying, the wettable powder, emulsifiable concentrate, dry flowable or flowable in the above formulation examples were diluted with water and sprayed over the entire surface by means of a small sprayer. Three weeks after spraying, the herbicidal effect on crop plants including rice, corn, wheat, soybean, cotton and various kinds of weeds were examined according to the judgement criteria shown below. Judgement criteria
(§2) The above growth control rates are determined by measuring the top fresh weights of the treated plants and those of the non-treated plants, and culculated from the following formula: [formula]

soybean (Glysine max) = details: crop plant, three weeks after spraying
From the text: as §1, §2

[1] = system: wheat (Triticum aestivum); details: crop plant, three weeks after spraying
From the text: as §1, §2

[2] = system: hairly galinosoga (Galinsoga ciliat); details: three weeks after spraying
From the text: as §1, §2

[3] = system: annual sedge (Cyperus microiria); details: three weeks after spraying
From the text: as §1, §2

rice (Oryza sativa) = details: crop plant, three weeks after spraying
From the text: as §1, §2

[4] = system: large crabgrass (Digitaria adscendens); details: three weeks after spraying
From the text: as §1, §2

[5] = system: cotton (Gossypium herbaceum); details: crop plant, three weeks after spraying
From the text: as §1, §2

[6] = system: rorippa ssp. (Rorippa atrovirens); details: three weeks after spraying
From the text: as §1, §2

[7] = system: barnyardgrass (Echinochloa crusgalli); details: three weeks after spraying
From the text: as §1, §2

[8] = system: black nightshade (Solanum nigrum L.); details: three weeks after spraying
From the text: as §1, §2

SMILES | herbicidal effect, T (Zea mays) (corn (Zea mays); application amount 1.6 g/a) | herbicidal effect, S (Glysine max) (soybean (Glysine max); application amount 1.6 g/a) | herbicidal effect, W (Triticum vulgare) ([1]; application amount 1.6 g/a) | herbicidal effect, D (Galinsoga ciliat) ([2]; application amount 1.6 g/a) | herbicidal effect, K (Cyperus microiria) ([3]; application amount 1.6 g/a) | herbicidal effect, R (Oryza sativa) (rice (Oryza sativa); application amount 1.6 g/a) | herbicidal effect, M (Digitaria adscendens) ([4]; application amount 1.6 g/a) | herbicidal effect, C (Gossypium herbaceum) ([5]; application amount 1.6 g/a) | herbicidal effect, I (Rorippa indica) ([6]; application amount 1.6 g/a) | herbicidal effect, N (Echinochloa crusgalli) ([7]; application amount 1.6 g/a) | herbicidal effect, H (Solanum nigrum L.) ([8]; application amount 1.6 g/a) | further results
CC(C)OC(=O)c1cc(N2C(=O)CC(C(C)C)C(C)C2=O)c(F)cc1Cl (stereo not drawn) [1-5] | 0 (Growth control rates of less than 5% (substantially no effect)) | 0 (Growth control rates of less than 5% (substantially no effect)) | 1 (Growth control rates of 5 to 20%) | 5 (Growth control,rates of more than 90% (almost completely withered)) | 5 (Growth control,rates of more than 90% (almost completely withered)) | 1 (Growth control rates of 5 to 20%) | 5 (Growth control,rates of more than 90% (almost completely withered)) | 0 (Growth control rates of less than 5% (substantially no effect)) | 5 (Growth control,rates of more than 90% (almost completely withered)) | 4 (Growth control rates of 70 to 90%) | 5 (Growth control,rates of more than 90% (almost completely withered)) | –
CCOC(=O)c1cc(N2C(=O)CCC(C)C2=O)c(F)cc1Cl (stereo not drawn) [1-12] | – | – | – | – | – | – | – | – | – | – | – | herbicidal effect, T (Zea mays) (corn (Zea mays); application amount 6.3 g/a): 0 (Growth control rates of less than 5% (substantially no effect)); herbicidal effect, S (Glysine max) (soybean (Glysine max); application amount 6.3 g/a): 0 (Growth control rates of less than 5% (substantially no effect)); herbicidal effect, W (Triticum vulgare) ([1]; application amount 6.3 g/a): 1 (Growth control rates of 5 to 20%); herbicidal effect, D (Galinsoga ciliat) ([2]; application amount 6.3 g/a): 4 (Growth control rates of 70 to 90%); herbicidal effect, K (Cyperus microiria) ([3]; application amount 6.3 g/a): 5 (Growth control,rates of more than 90% (almost completely withered)); herbicidal effect, R (Oryza sativa) (rice (Oryza sativa); application amount 6.3 g/a): 2 (Growth control rates of 20 to 40%); herbicidal effect, M (Digitaria adscendens) ([4]; application amount 6.3 g/a): 5 (Growth control,rates of more than 90% (almost completely withered)); herbicidal effect, C (Gossypium herbaceum) ([5]; application amount 6.3 g/a): 0 (Growth control rates of less than 5% (substantially no effect)); herbicidal effect, I (Rorippa indica) ([6]; application amount 6.3 g/a): 5 (Growth control,rates of more than 90% (almost completely withered)); herbicidal effect, N (Echinochloa crusgalli) ([7]; application amount 6.3 g/a): 2 (Growth control rates of 20 to 40%); herbicidal effect, H (Solanum nigrum L.) ([8]; application amount 6.3 g/a): 2 (Growth control rates of 20 to 40%)
CCS(=O)(=O)Nc1cc(N2C(=O)CC(C(F)(F)F)CC2=O)c(F)cc1Cl [1-15] | 0 (Growth control rates of less than 5% (substantially no effect)) | 0 (Growth control rates of less than 5% (substantially no effect)) | 0 (Growth control rates of less than 5% (substantially no effect)) | 5 (Growth control,rates of more than 90% (almost completely withered)) | 5 (Growth control,rates of more than 90% (almost completely withered)) | 0 (Growth control rates of less than 5% (substantially no effect)) | 5 (Growth control,rates of more than 90% (almost completely withered)) | 0 (Growth control rates of less than 5% (substantially no effect)) | 5 (Growth control,rates of more than 90% (almost completely withered)) | 3 (Growth control rates of 40 to 70%) | 5 (Growth control,rates of more than 90% (almost completely withered)) | –
